Source: US12565501B2, “Muscarinic acetylcholine M1 receptor antagonists” (Contineum Therapeutics, Inc., priority 2019, dated 2026)

Tests used:
Format in all cases: cell-based
[1] = target: T1, human M1 receptor (Homo sapiens, UniProt P11229); experiment: In vitro functional assay of muscarinic acetylcholine receptor activity (aequorin calcium flux, reversal of EC80 acetylcholine response); conditions: CHO-K1 cells stably expressing human M1 receptor with aequorin; acetylcholine at EC80; calcium flux (luminescence); read-out: M1 IC50
T1 sequence (P11229 1-460): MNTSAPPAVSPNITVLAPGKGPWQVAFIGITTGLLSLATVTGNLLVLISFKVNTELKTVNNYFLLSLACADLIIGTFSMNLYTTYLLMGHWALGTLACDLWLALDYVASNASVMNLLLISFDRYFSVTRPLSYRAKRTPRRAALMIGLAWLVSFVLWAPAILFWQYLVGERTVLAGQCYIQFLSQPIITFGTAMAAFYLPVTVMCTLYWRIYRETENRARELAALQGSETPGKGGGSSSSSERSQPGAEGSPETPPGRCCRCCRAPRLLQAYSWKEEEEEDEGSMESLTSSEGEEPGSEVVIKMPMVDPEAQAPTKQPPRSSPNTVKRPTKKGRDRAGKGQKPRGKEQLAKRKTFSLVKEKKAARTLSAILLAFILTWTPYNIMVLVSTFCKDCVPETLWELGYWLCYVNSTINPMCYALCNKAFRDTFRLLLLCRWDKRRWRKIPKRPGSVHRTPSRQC
Summary of the method: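 Antagonist mode: compound (final 0.1% DMSO) and coelenterazine-loaded M1/aequorin CHO-K1 cells incubated 30 min in the dark before EC80 acetylcholine addition. Calcium flash integrated as 40 s luminescence AUC; IC50 derived from dose-response curves.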

[2] = target: human M3 receptor (Homo sapiens, UniProt P20309); experiment: In vitro functional assay, reversal of EC80 acetylcholine response in CHO-K1 aequorin cells
Protocol: (§1) CHO-K1 cells stably expressing human M1 receptor with aequorin (Perkin Elmer) were grown in F12 media (Gibco) containing 10% FBS (ATCC), 0.4 mg/mL geneticin (Sigma-Aldrich) and 0.25 mg/mL Zeocin (Invitrogen). Cells were grown as per the manufacturer's protocol. For compound testing, cells were grown to confluency and detached gently with Accutase (Sigma-Aldrich) followed by centrifugation for 5 min at 150× g. Cells were then re-suspended in assay buffer (i.e. DMEM/F-12 HEPES without phenol red (Invitrogen) with 0.1% BSA (Sigma-Aldrich)) at a density of 5×10^6 cells/ml. Under sterile conditions, 5 μM coelenterazine (Invitrogen) was added to the cells, mixed, then incubated at room temperature protected from light, with gentle agitation, for 4 h.
(§2) Primary compound plates were prepared in 100% DMSO in opaque 96-well plates (VWR) and serially diluted in half log increments. Secondary compound plates were prepared at 3× concentration in assay buffer. Compounds were added to white, clear bottom tissue culture treated 96-well plates (Fisher Scientific). Coelenterazine-loaded cells were then added at 5×10^5 cells/well.
(§3) Compounds and cells were incubated at room temperature for 30 min in the dark. Acetylcholine at the EC80 concentration was added and calcium flux measured using a FlexStation 3 (Molecular Devices). Sigmoidal dose-response curves were generated by measuring luminescence over 40 sec and calculating the area under the curve. Dose response curves and IC50 values were generated using Prism (GraphPad). Compounds were tested at a final concentration range of 100 μM to […] in 0.1% DMSO.
(§4) CHO-K1 cells stably expressing human M2, M3 and M4 receptors, respectively, with aequonin (Perkin Elmer) were used to assess a test compound's ability to dose-dependently reverse the EC80 acetylcholine response. The IC50 of the compounds was calculated from the dose response curve.

[3] = target: T2, human M2 receptor (Homo sapiens, UniProt P08172); experiment: as above
T2 sequence (P08172 1-466): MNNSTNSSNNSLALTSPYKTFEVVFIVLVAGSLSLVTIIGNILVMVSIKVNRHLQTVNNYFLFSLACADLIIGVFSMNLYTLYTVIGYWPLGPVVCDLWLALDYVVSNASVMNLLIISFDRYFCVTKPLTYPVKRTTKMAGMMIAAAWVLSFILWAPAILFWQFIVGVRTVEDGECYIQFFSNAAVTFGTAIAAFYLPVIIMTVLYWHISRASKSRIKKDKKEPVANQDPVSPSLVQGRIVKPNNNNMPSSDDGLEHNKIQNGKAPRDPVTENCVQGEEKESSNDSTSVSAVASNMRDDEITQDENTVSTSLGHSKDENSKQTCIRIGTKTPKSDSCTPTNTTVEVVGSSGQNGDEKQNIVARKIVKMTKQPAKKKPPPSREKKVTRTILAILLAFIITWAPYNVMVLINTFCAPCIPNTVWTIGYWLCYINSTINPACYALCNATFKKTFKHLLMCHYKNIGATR
Protocol: as §1, §2, §3, §4

[4] = target: T3, human M4 receptor (Homo sapiens, UniProt P08173); experiment: as above
T3 sequence (P08173 1-479): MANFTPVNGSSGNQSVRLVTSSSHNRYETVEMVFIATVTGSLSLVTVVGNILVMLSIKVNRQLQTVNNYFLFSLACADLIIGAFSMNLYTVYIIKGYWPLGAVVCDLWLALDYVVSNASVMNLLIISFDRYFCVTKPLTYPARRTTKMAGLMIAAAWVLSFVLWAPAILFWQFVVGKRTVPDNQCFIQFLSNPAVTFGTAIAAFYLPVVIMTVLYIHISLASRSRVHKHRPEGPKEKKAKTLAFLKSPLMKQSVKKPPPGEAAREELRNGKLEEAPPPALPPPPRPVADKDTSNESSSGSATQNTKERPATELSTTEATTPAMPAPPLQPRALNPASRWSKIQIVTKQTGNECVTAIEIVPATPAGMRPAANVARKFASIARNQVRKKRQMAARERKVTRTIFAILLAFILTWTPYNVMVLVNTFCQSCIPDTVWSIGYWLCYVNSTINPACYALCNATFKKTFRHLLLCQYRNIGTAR
Protocol: as §1, §2, §3, §4

human M3 receptor, sequence (P20309 whole entry): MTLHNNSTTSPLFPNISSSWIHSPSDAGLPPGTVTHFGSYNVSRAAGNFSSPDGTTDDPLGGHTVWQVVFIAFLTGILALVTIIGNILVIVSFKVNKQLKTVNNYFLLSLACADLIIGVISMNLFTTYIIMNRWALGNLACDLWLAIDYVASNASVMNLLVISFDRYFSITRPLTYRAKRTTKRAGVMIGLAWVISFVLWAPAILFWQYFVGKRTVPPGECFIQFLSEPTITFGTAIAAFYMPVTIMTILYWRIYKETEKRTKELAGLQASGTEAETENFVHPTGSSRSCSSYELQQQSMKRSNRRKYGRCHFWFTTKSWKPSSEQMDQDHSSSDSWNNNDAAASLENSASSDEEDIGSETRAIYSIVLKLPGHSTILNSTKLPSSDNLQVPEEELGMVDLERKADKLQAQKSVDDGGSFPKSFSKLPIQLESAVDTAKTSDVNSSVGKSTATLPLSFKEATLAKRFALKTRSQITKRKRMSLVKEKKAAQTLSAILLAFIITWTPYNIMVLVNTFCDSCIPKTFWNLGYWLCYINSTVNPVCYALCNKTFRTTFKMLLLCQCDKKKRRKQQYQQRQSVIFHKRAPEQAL

N#Cc1ccc(N2C3CCC2CN(C(=O)CCNC2(c4ccc(F)c(F)c4)CC2)C3)nc1 [Example 1, 6-(3-(3-((1-(3,4-difluorophenyl)cyclopropyl)amino)propanoyl)-3,8-diazabicyclo[3.2.1]octan-8-yl)nicotinonitrile]
IC50 [1]: < 0.01 µM
IC50 [2]: 1 to 10 µM
IC50 [3]: 0.1 to 1 µM
IC50 [4]: 0.1 to 1 µM

N#Cc1ccc(N2C3CCC2CN(C(=O)CNC2(c4ccc(F)cc4F)CC2)C3)nc1 [Example 59, 6-(3-((1-(2,4-difluorophenyl)cyclopropyl)glycyl)-3,8-diazabicyclo[3.2.1]octan-8-yl)nicotinonitrile]
IC50 [1]: < 0.01 µM
IC50 [2]: 1 to 10 µM
IC50 [3]: 1 to 10 µM
IC50 [4]: 1 to 10 µM

C[C@H](NCC(=O)N1CC2CCC(C1)N2c1ccc(C#N)cn1)c1ccc(F)cc1F [Example 87, 6-(3-(((S)-1-(2,4-difluorophenyl)ethyl)glycyl)-3,8-diazabicyclo[3.2.1]octan-8-yl)nicotinonitrile]
IC50 [1]: < 0.01 µM
IC50 [2]: 1 to 10 µM
IC50 [3]: 1 to 10 µM
IC50 [4]: 1 to 10 µM

COc1cc(C2(NCC(=O)N3CC4CCC(C3)N4c3ccc(C#N)cn3)CCC2)ccn1 [Example 118, 6-(3-((1-(2-methoxypyridin-4-yl)cyclobutyl)glycyl)-3,8-diazabicyclo[3.2.1]octan-8-yl)nicotinonitrile]
IC50 [1]: 0.01 to 0.1 µM
IC50 [2]: 1 to 10 µM
IC50 [3]: 1 to 10 µM
IC50 [4]: 0.1 to 1 µM

COc1cc(C(F)(F)CCC(=O)N2CC3CCC(C2)N3c2ccc(C#N)cn2)ccn1 [Example 138, 6-(3-(4,4-difluoro-4-(2-methoxypyridin-4-yl)butanoyl)-3,8-diazabicyclo[3.2.1]octan-8-yl)nicotinonitrile]
IC50 [1]: < 0.01 µM
IC50 [2]: 0.1 to 1 µM
IC50 [3]: 1 to 10 µM
IC50 [4]: 0.1 to 1 µM

COc1ccnc(C(F)(F)CCC(=O)N2CC3CCC(C2)N3c2ccc(C#N)cn2)c1 [Example 147, 6-(3-(4,4-difluoro-4-(4-methoxypyridin-2-yl)butanoyl)-3,8-diazabicyclo[3.2.1]oxtan-8-yl)nicotinonitrile]
IC50 [1]: < 0.01 µM
IC50 [2]: 0.1 to 1 µM
IC50 [3]: 1 to 10 µM
IC50 [4]: 0.1 to 1 µM

N#Cc1ccc(N2C3CCC2CN(C(=O)CCC(F)(F)c2cccn4ncnc24)C3)nc1 [Example 158, 6-(3-(4-([1,2,4]triazolo[1,5-a]pyridin-8-yl)-4,4-difluorobutanoyl)-3,8-diazabicyclo[3.2.1]octan-8-yl)nicotinonitrile]
IC50 [1]: < 0.01 µM
IC50 [2]: 0.1 to 1 µM
IC50 [3]: 1 to 10 µM
IC50 [4]: 0.1 to 1 µM

COc1cccnc1C(F)(F)CCC(=O)N1CC2CCC(C1)N2c1ccc(C#N)cn1 [Example 162, 6-(3-(4,4-difluoro-4-(3-methoxypyridin-2-yl)butanoyl)-3,8-diazabicyclo[3.2.1]octan-8-yl)nicotinonitrile]
IC50 [1]: < 0.01 µM
IC50 [2]: 0.1 to 1 µM
IC50 [3]: 1 to 10 µM
IC50 [4]: 0.1 to 1 µM

N#Cc1ccc(N2C3CCC2CN(C(=O)COC2(c4ccc(F)c(F)c4)CC2)C3)nc1 [Example 177, 6-(3-(2-(1-(3,4-difluorophenyl)cyclopropoxy)acetyl)-3,8-diazabicyclo[3.2.1]octan-8-yl)nicotinonitrile]
IC50 [1]: 0.01 to 0.1 µM
IC50 [2]: 1 to 10 µM
IC50 [3]: 1 to 10 µM
IC50 [4]: 1 to 10 µM

N#Cc1ccc(N2C3CC[C@H]2CN(C(=O)COC2(c4ccc(F)c(F)c4)CCC2)C3)nc1 [Example 239]
IC50 [1]: < 0.01 µM
IC50 [2]: 1 to 10 µM
IC50 [3]: 1 to 10 µM
IC50 [4]: 1 to 10 µM
